Measured values from patent publication US8557770B2, “Method of preventing or reducing scarring of human skin” (Pharmecosse Ltd., priority 2000, dated 2013).
Like-named read-outs stand apart in the source and are kept apart here.

Key:
[1] = tested on: dermal fibroblast cell lines; test: Myofibroblast number in dermal fibroblast cell lines in GFD medium with PPAR agonist; type: cell-based, human; settings: for Mean percentage reduction in myofibroblast number compared to GFD medium alone: 14 days
Excerpt: Dermal fibroblast cell lines were derived from 3 patients and seeded individually onto sterile coverslips. […] Medium was refreshed twice weekly and cultures were harvested for immunohistochemical staining for α-smooth muscle actin after 14 days. The number of myofibroblasts was counted and calculated as a percentage of the total cells present, and since the ability of each cell line to differentiate into myofibroblasts varied extensively, the results were normalised as follows. Results are expressed as the mean percentage reduction in myofibroblast number for each treatment as compared to the proportion of myofibroblasts identified in GFD medium alone for that cell line. The error bars represent plus or minus one standard deviation.

PPARγ = target: T1, PPARγ (Homo sapiens, UniProt P37231); settings: read-out: Published C50, cited from earlier work
T1 sequence (P37231 1-505): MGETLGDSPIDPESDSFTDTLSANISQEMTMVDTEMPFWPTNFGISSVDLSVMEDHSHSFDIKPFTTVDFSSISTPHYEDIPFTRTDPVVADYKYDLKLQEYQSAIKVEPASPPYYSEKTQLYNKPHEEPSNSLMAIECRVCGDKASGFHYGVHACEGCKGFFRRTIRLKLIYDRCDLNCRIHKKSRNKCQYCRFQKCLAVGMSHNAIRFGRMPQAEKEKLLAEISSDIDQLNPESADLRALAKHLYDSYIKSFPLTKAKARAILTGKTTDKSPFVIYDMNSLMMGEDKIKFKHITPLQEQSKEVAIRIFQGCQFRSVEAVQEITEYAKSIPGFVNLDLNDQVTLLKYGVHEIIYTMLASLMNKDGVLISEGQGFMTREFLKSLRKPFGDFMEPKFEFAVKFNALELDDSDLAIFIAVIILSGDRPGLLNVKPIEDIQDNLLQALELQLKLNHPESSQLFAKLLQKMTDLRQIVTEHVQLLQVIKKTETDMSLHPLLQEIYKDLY

PPAR = settings: Table 3: other general PPAR agonists; read-out: Published C50; cited from earlier work
[2] = tested on: fibroblast cultures from hypertrophic scars (HTS); test: In vitro myofibroblast differentiation assay (α-smooth muscle actin staining), hypertrophic scar fibroblasts; type: cell-based, human; settings: hypertrophic scar fibroblasts
Excerpt: (§1) One of the most important cell types in both normal and pathological scar formation is the myofibroblast. These cells, which differentiate from the unwounded tissue cell type (fibroblasts), are responsible for laying down scar tissue. Indeed myofibroblasts remain present in hypertrophic scars up to four years after the original wounding event. An in vitro assay was accordingly developed to identify actives which prevent or reduce myofibroblast formation and thus identify actives which are effective in reducing and/or preventing scar tissue formation.
(§2) Fibroblast cultures were initiated from normal skin, normal scars, hypertrophic scars (HTS) and burns scars.
(§3) Each culture was split into seven parts (A to G) and grown in the following different growth media:
(§4) (A) was grown in normal growth medium (hereinafter referred to as NGM) which consisted of Dulbecco's modified Eagles Medium (DMEM) plus 10% Foetal Calf Serum (FCS);
(§5) (B) was grown in growth factor depleted medium (hereinafter referred to as GF depleted) which is NGM that is depleted of active polypeptide growth factors including TGFP. It is prepared by treating FCS with a reducing agent in order to attack and cleave the disulphide bonds that determine the conformation and thus the biological activity of the polypeptide growth factors;
(§6) (D) (D1-D4) were grown in growth factor depleted medium plus 1 ng/ml-100 ng/ml of insulin-like Growth Factor-I) (IGF-I) (hereinafter referred to as GF depleted+IGF-I); (E) (E1-E3) were grown in growth factor depleted medium plus 50 ng/ml-[…] of insulin-like Growth Factor II (IGF-II) (hereinafter referred to as GF depleted+IGFII); (F) (F1F3) were grown in growth factor depleted medium plus 25 ng/ml to 100 ng/ml of basic fibroblast growth factor (bFGF) (hereinafter referred to as GF depleted and bFGF); […]
(§7) The fibroblasts were grown in these media (which was replenished twice weekly) for fourteen days, fixed and stained immunohistochemically using an antibody specific for α-smooth muscle actin (a marker of myofibroblasts). […] The number of these was counted, as was the total number of cells present, and the proportion of myofibroblasts was then calculated. In this manner, the number of myofibroblasts present in each culture was determined as a percentage of the total number of cells in the culture population.
(§8) Fibroblast cultures were initiated from normal scars (NS) and hypertrophic scars (HTS). […] The number of myofibroblasts was calculated as a percentage of the total cell population and the results are shown in FIGS. 1 and 2 of the drawings.
(§9) Fibroblasts cultures were initiated from normal and hypertrophic scars. […] The number of myofibroblasts were counted and calculated as a percentage of the total cells present.

[3] = tested on: fibroblast cultures from normal scars; test: In vitro myofibroblast differentiation assay (α-smooth muscle actin staining), normal scar fibroblasts; type: cell-based, human
Excerpt: as §1, §2, §3, §4, §5, §6, §7, §8, §9

[4] = tested on: fibroblast cultures from burns scars; test: In vitro myofibroblast differentiation assay (α-smooth muscle actin staining), burns scar fibroblasts; type: cell-based, human; settings: 14 days
Excerpt: as §1, §2, §3, §4, §5
(D) (D1-D4) were grown in growth factor depleted medium plus 1 ng/ml-100 ng/ml of insulin-like Growth Factor-I) (IGF-I) (hereinafter referred to as GF depleted+IGF-I); (E) (E1-E3) were grown in growth factor depleted medium plus 50 ng/ml-[…] of insulin-like Growth Factor II (IGF-II) (hereinafter referred to as GF depleted+IGFII); (F) (F1F3) were grown in growth factor depleted medium plus 25 ng/ml to 100 ng/ml of basic fibroblast growth factor (bFGF) (hereinafter referred to as GF depleted and bFGF);
(G) (G1-G3) were grown in growth factor depleted medium plus 25 ng/ml to 100 ng/ml of platelet derived growth factor (PDGF) (hereinafter referred to as GF depleted+PDGF).
The fibroblasts were grown in these media (which was replenished twice weekly) for fourteen days, fixed and stained immunohistochemically using an antibody specific for α-smooth muscle actin (a marker of myofibroblasts). The stain caused α-smooth muscle actin to fluoresce green and accordingly cells that had stained green were identified as myofibroblasts. The number of these was counted, as was the total number of cells present, and the proportion of myofibroblasts was then calculated. In this manner, the number of myofibroblasts present in each culture was determined as a percentage of the total number of cells in the culture population.

[5] = Table 5: natural PPARγ agonists
[6] = NGM plus 0.5 ng/ml TGFβ1, 5 days (FIG. 3)

CC1(COc2ccc(CC3SC(=O)NC3=O)cc2)CCCCC1 (racemic) [Ciglitazone, (±)-5-[4-(1-methyl-cyclohexylmethoxy)-benzyl]-thiazolidine-2,4-dione]
Mean percentage reduction in myofibroblast number compared to GFD medium alone ([1]; 0.5×10^−7M): 79% | Mean percentage reduction in myofibroblast number compared to GFD medium alone ([1]; 10^−6M): 57% | Mean percentage reduction in myofibroblast number compared to GFD medium alone ([1]; 10^−7M): 53%

CCCCCC=CC=CC(O)CCCCCCCC(=O)O (stereo not drawn) [9-HODE, 9-hydroxy-10,12-octadecadienoic acid]
EC50 (PPARγ; [5]): ~20 µM

CCCCCC(O)C=CC=CCCCCCCCC(=O)O (stereo not drawn) [13-HODE, 13-hydroxy-9,11-octadecadienoic acid]
EC50 (PPARγ; [5]): ~20 µM

CCCCC[C@H](O)/C=C/C=C\C/C=C\C/C=C\CCCC(=O)O [15-HETE, 15-hydroxy-eicosatetraenoic acid]
EC50 (PPARγ; [5]): ~10 µM

CCCCCC=CC=C1C(=O)C=C[C@@H]1CC=CCCCC(=O)O [15-deoxy-Δ^12,14 prostaglandin J2]
EC50 (PPARγ; [5]): ~3 µM

CCCCC/C=C\C/C=C\C/C=C\C/C=C\CCCC(=O)O [Arachidonic acid]
EC50 (PPARγ; [5]): ~20 µM

CC(C)(Oc1ccc(CCNC(=O)c2ccc(Cl)cc2)cc1)C(=O)O [Bezafibrate, 2-[4-[2-[(4-chlorobenzoyl)-amino]ethyl]phenoxy]-2-methyl propanoic acid]
EC50 (PPAR): 60 µM

CCOC(=O)C(C)(C)Oc1ccc(Cl)cc1 [Clofibrate]
EC50 (PPARγ; Table 4: strong agonists for PPAR receptors other than PPARγ, weak action on PPARγ): ~500 µM

CC/C=C\C/C=C\C/C=C\C/C=C\C/C=C\CCCC(=O)O [Eicosapentaenoic acid (EPA), Eicosapentaenoic acid]
EC50 (PPARγ; [5]): ~20 µM

CCCc1c(OCCCOc2ccc(OCC(=O)O)cc2)ccc(C(C)=O)c1O [L-165041]
EC50 (PPAR): 5.5 µM

CCCc1c(OCCCCc2nnn[nH]2)ccc(C(C)=O)c1O [LY171883]
Numbers of myofibroblasts ([1]; non-specific PPAR agonist): increase the numbers of myofibroblasts

CCCCC/C=C\C/C=C\CCCCCCCC(=O)O [Linoleic acid]
EC50 (PPARγ; [5]): ~20 µM

O=C[C@@H](O)[C@@H](O)[C@H](O)[C@H](O)COP(=O)(O)O [mannose-6-phosphate, reference compound]
Induction of myofibroblast differentiation in GFD medium ([2]; GFD plus 100 μM or 10 μM M-6-P, 13 days (FIG. 2)): inhibits the induction of myofibroblast differentiation | Induction of myofibroblast differentiation in GFD medium ([3]; GFD plus 100 μM or 10 μM M-6-P, 13 days (FIG. 1)): inhibits the induction of myofibroblast differentiation

IGF-I: insulin-like Growth Factor-I
Number of myofibroblasts - percentage of total cell population ([4]; GF depleted medium + 1 ng/ml): 40.79 percentage of total cell popul | Number of myofibroblasts - percentage of total cell population ([4]; GF depleted medium + 10 ng/ml): 43.90 percentage of total cell popul | Number of myofibroblasts - percentage of total cell population ([4]; GF depleted medium + 50 ng/ml): 51.51 percentage of total cell popul | Number of myofibroblasts - percentage of total cell population ([4]; GF depleted medium + 100 ng/ml): 47.00 percentage of total cell popul

IGF-II: insulin-like Growth Factor II
Number of myofibroblasts - percentage of total cell population ([4]; GF depleted medium + 50 ng/ml): 37.93 percentage of total cell popul | Number of myofibroblasts - percentage of total cell population ([4]; GF depleted medium + 100 ng/ml): 40.26 percentage of total cell popul | Number of myofibroblasts - percentage of total cell population ([4]; GF depleted medium + 200 ng/ml): 38.52 percentage of total cell popul

PDGF
Number of myofibroblasts - percentage of total cell population ([4]; GF depleted medium + 25 ng/ml): 50.95 percentage of total cell popul | Number of myofibroblasts - percentage of total cell population ([4]; GF depleted medium + 50 ng/ml): 52.84 percentage of total cell popul | Number of myofibroblasts - percentage of total cell population ([4]; GF depleted medium + 100 ng/ml): 53.35 percentage of total cell popul

TGFβ1: transforming growth factor beta 1, inducer of myofibroblast differentiation
Induction of myofibroblast differentiation [2, 6]: induces a rapid (within 5 days) induction of myofibroblast differentiation | Induction of myofibroblast differentiation [3, 6]: induces a rapid (within 5 days) induction of myofibroblast differentiation

bFGF: basic fibroblast growth factor
Number of myofibroblasts - percentage of total cell population ([4]; GF depleted medium + 25 ng/ml): 31.82 percentage of total cell popul | Number of myofibroblasts - percentage of total cell population ([4]; GF depleted medium + 100 ng/ml): 34.21 percentage of total cell popul
